Results published in patent US11952388B2, “Crystal form of tri-cycle compound and application thereof” (FUJIAN AKEYLINK BIOTECHNOLOGY CO., LTD., priority 2018, dated 2024).
Like-named read-outs stand apart in the source and are kept apart here.

Tests used:
[1] = target: T1, CYP1A2 (Homo sapiens, UniProt P05177); experiment: Inhibition of human liver microsomal cytochrome P450 isoenzymes; format: in vitro ADME; conditions: human liver microsomes
T1 construct: from tissue; host or cells: human liver microsomes
T1 sequence (P05177 1-516): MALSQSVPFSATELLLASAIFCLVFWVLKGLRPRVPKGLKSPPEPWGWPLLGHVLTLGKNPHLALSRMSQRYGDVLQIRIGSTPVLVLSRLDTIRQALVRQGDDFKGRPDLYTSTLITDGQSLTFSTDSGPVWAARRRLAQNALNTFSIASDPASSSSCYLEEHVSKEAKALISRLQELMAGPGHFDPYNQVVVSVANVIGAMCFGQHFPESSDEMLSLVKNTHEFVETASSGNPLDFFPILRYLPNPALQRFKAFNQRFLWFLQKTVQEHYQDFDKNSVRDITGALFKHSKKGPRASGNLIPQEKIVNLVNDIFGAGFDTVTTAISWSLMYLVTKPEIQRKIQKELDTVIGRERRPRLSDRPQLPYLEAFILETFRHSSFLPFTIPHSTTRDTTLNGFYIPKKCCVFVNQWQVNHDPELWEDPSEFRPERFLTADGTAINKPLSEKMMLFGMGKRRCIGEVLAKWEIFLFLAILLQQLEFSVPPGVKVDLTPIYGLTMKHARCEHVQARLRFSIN
Method: (§1) Objectives of experiment: To determine the inhibitory effect of the test compound on the activity of human liver microsomal cytochrome P450 isoenzymes (CYP1A2, CYP2C9, CYP2C19, CYP2D6 and CYP3A4). Experimental operation: First, the test compound (10 mM) was diluted in a gradient to prepare the working solutions (100× final concentration). The concentrations of the working solutions were 5, 1.5, 0.5, 0.15, 0.05, 0.015 and 0.005 mM. Meanwhile, the working solutions of mixture (5 in 1) of positive inhibitors of each P450 isoenzyme (CYP1A2, CYP2C9, CYP2C19, CYP2D6 and CYP3A4) and the specific substrate of the isoenzymes were also prepared; the human liver microsomes frozen in the refrigerator at −80° C. were unfrozen on ice. After the human liver microsomes were completely dissolved, they were diluted with PB to prepare a certain concentration (0.253 mg/mL) of working solution; 20 uL of the substrate mixture was added into the reaction plate (20 μl PB was added into the Blank well) as well as 158 μL of human liver microsome working solution, then the reaction plate was placed on ice and set aside; at this time, 2 μL of each concentration of test compound (N=1) and specific inhibitor (N=2) were added to the corresponding well, the group without inhibitor (test compound or positive inhibitor) was added with the corresponding organic solvent as a control sample (the test compound control sample was 1:1 DMSO:MeOH, and the positive control sample was 1:9 DMSO:MeOH); after pre-incubating in a 37° C. water bath for 10 min, the reaction plate was added with 20 μL of coenzyme factor (NADPH) solution and water bathed at 37° C. for 10 min; 400 μL of cold acetonitrile solution (internal standard was 200 ng/mL Tolbutamide and Labetalol) was added to terminate the reaction; the reaction plate was then placed on a shaker and shaken for 10 min, followed by centrifuging at 4,000 rpm for 20 min; 200 μL of supernatant was added to 100 μL of water for sample dilution; finally, the plate was sealed, shaken well, and subjected to LC/MS/MS detection.

[2] = target: T2, CYP2C19 (Homo sapiens, UniProt P33261); experiment: as above; format: in vitro ADME; conditions: human liver microsomes
T2 construct: from tissue; host or cells: human liver microsomes
T2 sequence (P33261 whole entry): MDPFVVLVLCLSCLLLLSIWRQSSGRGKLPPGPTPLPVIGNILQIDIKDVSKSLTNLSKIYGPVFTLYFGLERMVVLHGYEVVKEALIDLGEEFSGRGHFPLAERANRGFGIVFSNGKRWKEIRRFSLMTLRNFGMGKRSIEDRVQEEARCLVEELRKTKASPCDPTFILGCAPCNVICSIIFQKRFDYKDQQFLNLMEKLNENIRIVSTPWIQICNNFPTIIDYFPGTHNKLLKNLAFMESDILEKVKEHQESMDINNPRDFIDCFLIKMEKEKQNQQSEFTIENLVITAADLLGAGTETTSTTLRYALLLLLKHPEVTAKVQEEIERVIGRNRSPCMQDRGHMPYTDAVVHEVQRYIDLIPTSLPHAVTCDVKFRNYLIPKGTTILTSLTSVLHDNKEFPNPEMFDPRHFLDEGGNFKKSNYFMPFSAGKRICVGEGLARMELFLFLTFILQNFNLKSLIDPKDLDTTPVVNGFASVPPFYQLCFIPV
Method: as §1

[3] = target: T3, CYP2C9 (Homo sapiens, UniProt P11712); experiment: as above; format: in vitro ADME; conditions: human liver microsomes
T3 construct: from tissue; host or cells: human liver microsomes
T3 sequence (P11712 whole entry): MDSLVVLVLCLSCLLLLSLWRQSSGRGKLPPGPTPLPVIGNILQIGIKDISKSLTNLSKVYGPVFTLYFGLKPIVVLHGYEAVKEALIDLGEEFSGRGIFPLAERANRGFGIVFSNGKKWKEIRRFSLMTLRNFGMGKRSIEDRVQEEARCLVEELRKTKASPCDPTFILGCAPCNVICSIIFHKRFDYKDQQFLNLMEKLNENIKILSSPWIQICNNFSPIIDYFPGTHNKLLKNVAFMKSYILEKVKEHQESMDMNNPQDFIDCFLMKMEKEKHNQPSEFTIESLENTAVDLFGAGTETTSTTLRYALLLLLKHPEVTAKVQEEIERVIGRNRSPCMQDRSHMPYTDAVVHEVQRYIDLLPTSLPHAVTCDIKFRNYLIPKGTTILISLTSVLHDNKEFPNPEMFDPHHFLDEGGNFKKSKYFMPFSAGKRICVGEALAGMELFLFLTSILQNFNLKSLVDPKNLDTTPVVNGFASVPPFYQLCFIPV
Method: as §1

[4] = target: T4, CYP2D6 (Homo sapiens, UniProt P10635); experiment: as above; format: in vitro ADME; conditions: human liver microsomes
T4 construct: from tissue; host or cells: human liver microsomes
T4 sequence (P10635 whole entry): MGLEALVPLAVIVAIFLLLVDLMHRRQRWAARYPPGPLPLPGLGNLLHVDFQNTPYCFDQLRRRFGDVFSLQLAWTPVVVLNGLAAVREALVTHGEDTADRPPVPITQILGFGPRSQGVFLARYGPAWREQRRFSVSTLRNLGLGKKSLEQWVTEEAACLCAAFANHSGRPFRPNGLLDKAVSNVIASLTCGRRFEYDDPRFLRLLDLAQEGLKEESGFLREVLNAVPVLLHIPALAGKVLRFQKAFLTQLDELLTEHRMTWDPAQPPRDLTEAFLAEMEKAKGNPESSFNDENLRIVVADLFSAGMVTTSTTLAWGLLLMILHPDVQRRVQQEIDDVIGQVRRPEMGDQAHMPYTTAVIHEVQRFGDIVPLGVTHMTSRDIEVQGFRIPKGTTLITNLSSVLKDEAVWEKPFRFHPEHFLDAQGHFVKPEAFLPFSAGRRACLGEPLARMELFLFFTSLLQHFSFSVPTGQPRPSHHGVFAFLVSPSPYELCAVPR
Method: as §1

[5] = target: T5, CYP3A4 (Homo sapiens, UniProt P08684); experiment: as above; format: in vitro ADME; conditions: human liver microsomes
T5 construct: from tissue; host or cells: human liver microsomes
T5 sequence (P08684 whole entry): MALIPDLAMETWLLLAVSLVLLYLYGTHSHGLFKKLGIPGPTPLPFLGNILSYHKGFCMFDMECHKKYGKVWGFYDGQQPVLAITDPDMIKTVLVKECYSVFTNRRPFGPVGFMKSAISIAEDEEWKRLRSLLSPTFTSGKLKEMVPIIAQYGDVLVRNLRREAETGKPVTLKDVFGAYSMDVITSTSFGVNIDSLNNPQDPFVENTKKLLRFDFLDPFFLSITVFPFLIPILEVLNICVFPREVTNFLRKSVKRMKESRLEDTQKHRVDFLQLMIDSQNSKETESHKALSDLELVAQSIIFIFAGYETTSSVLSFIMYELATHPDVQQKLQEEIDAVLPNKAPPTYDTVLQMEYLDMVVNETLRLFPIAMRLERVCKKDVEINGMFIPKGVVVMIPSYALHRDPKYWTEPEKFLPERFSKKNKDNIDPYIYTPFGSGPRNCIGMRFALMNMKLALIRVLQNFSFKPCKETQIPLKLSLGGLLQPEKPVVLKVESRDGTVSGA
Method: as §1

[6] = Pharmacokinetics of oral administration and intravenous injection in SD rats; format: in vivo; conditions: male, rat, plasma
Method: 2. Study on the Pharmacokinetics of Oral Administration and Intravenous Injection of the Compound Represented by Formula (I) in SD Rats The compound represented by formula (I) was mixed with 5% DMSO/55% polyethylene glycol 400/40% aqueous solution, vortexed and sonicated to obtain an approximately clear solution of 1 mg/mL, which was then filtered by a microporous membrane for later use. Male SD rats aged 7 to 10 weeks were selected and the candidate compound solution was administered intravenously at a dose of 1 mg/kg. The compound represented by formula (I) was mixed with 10% solutol aqueous solution, vortexed and sonicated to obtain an approximately clear solution of 1 mg/mL, which was then filtered through a microporous membrane for later use. Male SD rats aged 7 to 10 weeks were selected and the candidate compound solution was orally administered at a dose of 10 mg/kg. Whole blood was collected at a certain period of time to prepare plasma, drug concentration was analyzed by LC-MS/MS method, and pharmacokinetic parameters was calculated by Phoenix WinNonlin software (Pharsight, USA). Note: T1/2 means half-life; Vdss means apparent volume of distribution; Cl means clearance rate; AUC0_last means area below the drug-time curve; Tmax means peak time; Cmax means peak concentration; F % means oral bioavailability; iv means intravenous injection; PO means oral administration; mpk means mg/kg.

## Cc1cc2n(c1)S(=O)(=O)c1ccc(C(=O)NCC[C@H]3COCCO3)cc1NC2=O [compound represented by formula (I)]
[1]
  IC50: > 50 µM
  inhibitory effect on CYP1A2 (conclusion in words): no evident inhibitory effect
[2]
  IC50: > 50 µM
  inhibitory effect on CYP2C19 (conclusion in words): no evident inhibitory effect
[3]
  IC50: > 50 µM
  inhibitory effect on CYP2C9 (conclusion in words): no evident inhibitory effect
[4]
  IC50: > 50 µM
  inhibitory effect on CYP2D6 (conclusion in words): no evident inhibitory effect
[5]
  IC50: > 50 µM
  inhibitory effect on CYP3A4 (conclusion in words): no evident inhibitory effect
[6]; 1 mg/kg, iv 1 mpk
  clearance: 8.5 mL/min/kg
  half-life: 57 min
[6]; 1 mg/kg, iv 1 mpk, read-out: AUC0-last
  AUC(0-t): 4.82 µM·h
[6]; 1 mg/kg, iv 1 mpk, read-out: Vdss
  Vd: 0.56 L/kg
[6]; 10 mg/kg, po 10 mpk
  Cmax: 8.57 µM
  Tmax: 30 min
  bioavailability: 65%
[6]; 10 mg/kg, po 10 mpk, read-out: AUC0-24h
  AUC(0-t): 31.1 µM·h
